Data reported in US6969702B2, “Compounds and methods for increasing neurogenesis” (priority 2002, dated 2005).
Read-outs that look alike come from different tables or passages of the source. Marks after values point to notes of the source that are not given here. Bridge positions count the residues as written; N and C are the ends. Square brackets hold non-standard residues; d marks the D form. Peptide text beside a SMILES is read from it. pGlu = O=C1CC[C@@H](C(=O)O)N1

Experiments:
[1] = test system: NFAT-Luciferace reporter (Ca^2+); conditions: Table 4; for NFAT Luciferace units: 24 hours after induction; for Fold Induction NFAT: vs vehicle
[2] = test system: mouse adult neural stem cells; experiment: ATP-assay: proliferation (ATP levels) of neurosphere-derived cells; conditions: for Fold Induction ATP: vs vehicle
[3] = test system: cAMP activation in mouse adult neural stem cells; experiment: cAMP detection (HitHunter EFC Cyclic AMP Chemiluminescence Assay); conditions: Table 2; for Fold Induction cAMP: 10 nM, vs vehicle
[4] = test system: Adult neural stem cells; experiment: Flow cytometry for early neuronal marker Doublecortin; conditions: Table 6, 100 nM; for % Doublecortin-positive cells: 4 days; for Fold Induction (Doublecortin-positive cells): vs EGF/FGF
[5] = Table 4, concentration not given

CSCC[C@H](NC(=O)[C@H](CC(C)C)NC(=O)[C@@H]1CCCN1C(=O)[C@H](Cc1ccccc1)NC(=O)[C@H](Cc1ccccc1)NC(=O)[C@@H]1CCC(=O)N1)C(N)=O [Septide] ([pGlu]FFPLM-NH2; C-terminus assumed) was tested, and the “NFAT Luciferace units” value ([1]; 100 nM) was 3.7 ± 0.9 Luciferace units and the “ATP (nM ATP/well)” value ([2]; Table 4, 100 nM) was 25.1 ± 3.1 nM ATP/well.

With CC[C@H](C)[C@H](NC(=O)[C@H](C)NC(=O)[C@H](CC(=O)O)NC(=O)[C@H](C)NC(=O)[C@@H](N)Cc1ccc(O)cc1)C(=O)N[C@@H](Cc1ccccc1)C(=O)N[C@H](C(=O)N[C@@H](CC(N)=O)C(=O)N[C@@H](CO)C(=O)N[C@@H](Cc1ccc(O)cc1)C(=O)N[C@@H](CCCNC(=N)N)C(=O)N[C@@H](CCCCN)C(=O)N[C@H](C(=O)N[C@@H](CC(C)C)C(=O)NCC(=O)N[C@@H](CCC(N)=O)C(=O)N[C@@H](CC(C)C)C(=O)N[C@@H](CO)C(=O)N[C@@H](C)C(=O)N[C@@H](CCCNC(=N)N)C(=O)N[C@@H](CCCCN)C(=O)N[C@@H](CC(C)C)C(=O)N[C@@H](CC(C)C)C(=O)N[C@@H](CCC(N)=O)C(=O)N[C@@H](CC(=O)O)C(=O)N[C@H](C(=O)N[C@@H](CCSC)C(=O)N[C@@H](CO)C(=O)N[C@@H](CCCNC(=N)N)C(=O)N[C@@H](CCC(N)=O)C(=O)N[C@@H](CCC(N)=O)C(=O)NCC(=O)N[C@@H](CCC(=O)O)C(=O)N[C@@H](CO)C(=O)N[C@@H](CC(N)=O)C(=O)N[C@@H](CCC(N)=O)C(=O)N[C@@H](CCC(=O)O)C(=O)N[C@@H](CCCNC(=N)N)C(=O)NCC(=O)N[C@@H](C)C(=O)N[C@@H](CCCNC(=N)N)C(=O)N[C@@H](C)C(=O)N[C@@H](CCCNC(=N)N)C(=O)N[C@@H](CC(C)C)C(N)=O)[C@@H](C)CC)C(C)C)[C@@H](C)O [Growth Hormone Releasing Factor] the “NFAT Luciferace units” value ([1]; 15 nM) was 4.5 ± 0.6 Luciferace units and the “ATP (nM ATP/well)” value ([2]; Table 4, 10 nM) was 12.6 ± 0.9 nM ATP/well.

For CC[C@H](C)[C@H](NC(=O)[C@@H](NC(=O)[C@H](CC(=O)O)NC(=O)[C@H](CCC(N)=O)NC(=O)[C@H](Cc1c[nH]cn1)NC(=O)[C@@H]1CSSC[C@H](N)C(=O)N[C@@H](CO)C(=O)N[C@H]2CSSC[C@H](NC(=O)[C@H](CCC(=O)O)NC(=O)[C@H](CCCCN)NC(=O)[C@H](CC(=O)O)NC(=O)[C@H]([C@@H](C)O)NC(=O)[C@H](CCSC)NC(=O)[C@H](CC(=O)O)NC(=O)[C@H](CCCCN)NC2=O)C(=O)N[C@@H](CC(C)C)C(=O)N[C@@H](Cc2ccc(O)cc2)C(=O)N[C@@H](Cc2ccccc2)C(=O)N1)C(C)C)C(=O)N[C@@H](Cc1c[nH]c2ccccc12)C(=O)O [Sarafotoxin S6b] (H-CSCKDMTDKECLYFCHQDVIW-OH; disulfide 1-15, 3-11 (inferred); N-terminus and C-terminus assumed), the “NFAT Luciferace units” value ([1]; 100 nM) was 13.4 ± 7.0 Luciferace units, the “ATP (nM ATP/well)” value ([2]; Table 2, 100 nM, 4 days) was 43.0 ± 7.8 nM ATP/well and the “ATP (nM ATP/well)” value ([2]; Table 4, 100 nM) was 43.0 ± 7.8 nM ATP/well. For the same molecule, the “cAMP (pmol/well)” value ([3]; 100 nM (cAMP concentration)) was 0.43 ± 0.22 pmol/well.

With CC1(C)SSC(C)(C)[C@@H](NC(=O)[C@@H](N)Cc2ccc(O)cc2)C(=O)NCC(=O)N[C@@H](Cc2ccccc2)C(=O)N[C@H]1C(=O)O [[D-Pen2-5]-Enkephalin] the “NFAT Luciferace units” value ([1]; 100 nM) was 10.3 ± 2.1 Luciferace units, the “Fold Induction NFAT” value ([1]; 100 nM) was 1.8* fold and the “ATP (nM ATP/well)” value ([2]; Table 2, 10 nM, 4 days) was 10.7 ± 0.9 nM ATP/well. For the same molecule, the “Fold Induction ATP” value ([2]; Table 2, 10 nM, 4 days) was 1.2** fold, the “ATP (nM ATP/well)” value ([2]; Table 4, 10 nM) was 10.7 ± 0.9 nM ATP/well and the “Fold Induction ATP” value ([2]; Table 4, 10 nM) was 1.2* fold. The “% Doublecortin-positive cells” value [4] was 3.3%, the “Fold Induction (Doublecortin-positive cells)” value [4] was 1.3 fold and the “cAMP (pmol/well)” value ([3]; 10 nM (cAMP concentration)) was 0.06 ± 0.01 pmol/well. For the same molecule, the “Fold Induction cAMP” value [3] was 1.7* fold.

For CC[C@H](C)[C@H](NC(=O)[C@@H](NC(=O)[C@H](CC(=O)O)NC(=O)[C@H](CCC(N)=O)NC(=O)[C@H](Cc1c[nH]cn1)NC(=O)[C@@H]1CSSC[C@H](N)C(=O)N[C@@H]([C@@H](C)O)C(=O)N[C@H]2CSSC[C@H](NC(=O)[C@H](CCC(=O)O)NC(=O)[C@H](CCC(=O)O)NC(=O)[C@H](CC(=O)O)NC(=O)[C@H]([C@@H](C)O)NC(=O)[C@H](CCSC)NC(=O)[C@H](CC(=O)O)NC(=O)[C@H](CC(N)=O)NC2=O)C(=O)N[C@@H](CC(C)C)C(=O)N[C@@H](CC(N)=O)C(=O)N[C@@H](Cc2ccccc2)C(=O)N1)C(C)C)C(=O)N[C@@H](Cc1c[nH]c2ccccc12)C(=O)O [Sarafotoxin S6c], the “NFAT Luciferace units” value ([1]; 1 nM) was 8.3 ± 2.0 Luciferace units, the “ATP (nM ATP/well)” value ([2]; Table 2, 10 nM, 4 days) was 39.9 ± 6.6 nM ATP/well and the “ATP (nM ATP/well)” value ([2]; Table 4, 1 nM) was 41.6 ± 4.8 nM ATP/well. The “cAMP (pmol/well)” value ([3]; 10 nM (cAMP concentration)) was 0.21 ± 0.03 pmol/well.

With CSCC[C@H](NC(=O)[C@H](C)NC(=O)[C@@H]1CCCN1C(=O)[C@H](CC(N)=O)NC(=O)[C@H](CO)NC(=O)[C@H](CC(N)=O)NC(=O)[C@H](C)NC(=O)[C@@H](N)CO)C(=O)N[C@@H](C)C(=O)N1CCC[C@H]1C(=O)N[C@@H](CCCNC(=N)N)C(=O)N[C@@H](CCC(=O)O)C(=O)N[C@@H](CCCNC(=N)N)C(=O)N[C@@H](CCCCN)C(=O)N[C@@H](C)C(=O)NCC(=O)N[C@H]1CSSC[C@@H](C(=O)O)NC(=O)[C@H](CO)NC(=O)[C@H]([C@@H](C)O)NC(=O)[C@H](Cc2ccccc2)NC(=O)[C@H]([C@@H](C)O)NC(=O)[C@H](CCCCN)NC(=O)[C@H](Cc2c[nH]c3ccccc23)NC(=O)[C@H](Cc2ccccc2)NC(=O)[C@H](Cc2ccccc2)NC(=O)[C@H](CC(N)=O)NC(=O)[C@H](CCCCN)NC1=O [Somatostatin-28] the “NFAT Luciferace units” value ([1]; 100 nM) was 3.0 ± 0.4 Luciferace units, the “Fold Induction NFAT” value ([1]; 100 nM) was 1.6* fold and the “ATP (nM ATP/well)” value ([2]; Table 4, 10 nM) was 17.1 ± 1.5 nM ATP/well. For the same molecule, the “Fold Induction ATP” value ([2]; Table 4, 10 nM) was 1.2* fold.

For CC[C@H](C)[C@H](NC(=O)[C@@H](NC(=O)[C@H](CC(=O)O)NC(=O)[C@H](CCC(N)=O)NC(=O)[C@H](Cc1c[nH]cn1)NC(=O)[C@@H]1CSSC[C@H](N)C(=O)N[C@@H](CO)C(=O)N[C@H]2CSSC[C@H](NC(=O)[C@H](CCC(=O)O)NC(=O)[C@H](CCCCN)NC(=O)[C@H](CC(=O)O)NC(=O)[C@H]([C@@H](C)O)NC(=O)[C@H](CCSC)NC(=O)[C@H](CC(=O)O)NC(=O)[C@H](CCCCN)NC2=O)C(=O)N[C@@H](CC(C)C)C(=O)N[C@@H](CC(N)=O)C(=O)N[C@@H](Cc2ccccc2)C(=O)N1)C(C)C)C(=O)N[C@@H](Cc1c[nH]c2ccccc12)C(=O)O [Sarafotoxin S6a] (H-CSCKDMTDKECLNFCHQDVIW-OH; disulfide 1-15, 3-11; N-terminus and C-terminus assumed), the “NFAT Luciferace units” value ([1]; 1 nM) was 6.3 ± 2.4 Luciferace units, the “Fold Induction NFAT” value ([1]; 1 nM) was 3.4* fold and the “ATP (nM ATP/well)” value ([2]; Table 2, 10 nM, 4 days) was 43.3 ± 4.5 nM ATP/well. The “Fold Induction ATP” value ([2]; Table 2, 10 nM, 4 days) was 3.5*** fold, the “ATP (nM ATP/well)” value ([2]; Table 4, 1 nM) was 38.9 ± 3.2 nM ATP/well and the “Fold Induction ATP” value ([2]; Table 4, 1 nM) was 3.1*** fold. The “% Doublecortin-positive cells” value [4] was 3.2%, the “Fold Induction (Doublecortin-positive cells)” value [4] was 1.3 fold and the “cAMP (pmol/well)” value ([3]; 10 nM (cAMP concentration)) was 0.41 ± 0.06 pmol/well. For the same molecule, the “Fold Induction cAMP” value [3] was 1.4* fold.

For CC(C)C[C@H](NC(=O)CNC(=O)[C@H](C)NC(=O)[C@H](CC(C)C)NC(=O)[C@H](CCCNC(=N)N)NC(=O)[C@H](Cc1cnc[nH]1)NC(=O)[C@@H](NC(=O)[C@@H](N)C(C)C)[C@@H](C)O)C(=O)N[C@@H](CC(C)C)C(=O)N[C@@H](CO)C(=O)N[C@@H](CCCNC(=N)N)C(=O)N[C@@H](CO)C(=O)NCC(=O)NCC(=O)N[C@H](C(=O)N[C@H](C(=O)N[C@@H](CCCCN)C(=O)N[C@@H](CC(N)=O)C(=O)N[C@@H](CC(N)=O)C(=O)N[C@@H](Cc1ccccc1)C(=O)N[C@H](C(=O)N1CCC[C@H]1C(=O)N[C@H](C(=O)N[C@@H](CC(N)=O)C(=O)N[C@H](C(=O)NCC(=O)N[C@@H](CO)C(=O)N[C@@H](CCCCN)C(=O)N[C@@H](C)C(=O)N[C@@H](Cc1ccccc1)C(N)=O)C(C)C)[C@@H](C)O)C(C)C)C(C)C)C(C)C [CGRP (8-37)], the “Fold Induction NFAT” value ([1]; 15 nM) was 1.3** fold and the “Fold Induction ATP” value ([2]; Table 4, 100 nM) was 1.2** fold.

In the case of N=C(N)NCCC[C@@H](N)C(=O)N[C@@H](CCCNC(=N)N)C(=O)N1CCC[C@H]1C(=O)N1C[C@H](O)C[C@H]1C(=O)NCC(=O)N[C@H](C(=O)N[C@@H](CO)C(=O)N[C@@H](C(=O)N1[C@H](C(=O)N[C@@H](CCCNC(=N)N)C(=O)O)C[C@@H]2CCCC[C@@H]21)C1Cc2ccccc2C1)C1Cc2ccccc2C1 [[D-Arg0, Hyp3, Ig15, D-Ig17, Oic8]-Bradykinin], the “ATP (nM ATP/well)” value ([2]; Table 2, 100 nM, 4 days) was 13.1 ± 2.1 nM ATP/well, the “% Doublecortin-positive cells” value [4] was 3.6% and the “cAMP (pmol/well)” value ([3]; 10 nM (cAMP concentration)) was 0.17 ± 0.02 pmol/well.

In the case of CC[C@H](C)[C@H](NC(=O)[C@H](Cc1ccc(O)cc1)NC(=O)[C@@H](NC(=O)[C@H](CCCNC(=N)N)NC(=O)[C@@H](N)CC(=O)O)C(C)C)C(=O)N[C@@H](Cc1cnc[nH]1)C(=O)N1CCC[C@H]1C(=O)N[C@@H](Cc1ccccc1)C(=O)O [Angiotensin II (human synthetic)], the “NFAT Luciferace units” value ([1]; concentration not given) was 12.0 ± 3.7 Luciferace units, the “Fold Induction NFAT” value ([1]; concentration not given) was 2.1* fold and the “ATP (nM ATP/well)” value [2, 5] was 11.7 ± 0.6 nM ATP/well. The “Fold Induction ATP” value [2, 5] was 1.2* fold, the “% Doublecortin-positive cells” value [4] was 3.1% and the “Fold Induction (Doublecortin-positive cells)” value [4] was 1.2 fold.
